Measurements as given in PubChem BioAssay (NCI).
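Cells were grown in 96-well plates and exposed to each compound for 48 hours at five concentrations; endpoints were interpolated linearly between bracketing concentrations, or set to the highest concentration if not reached. Definition used: TGI = concentration required for complete inhibition of growth.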

How the values were obtained:
Test in all cases: NCI tumour cell line growth inhibition, 48 h
786-0 renal = system: 786-0 renal
A498 renal = system: A498 renal
A549 NSCLC = system: A549 NSCLC
ACHN renal = system: ACHN renal
CAKI-1 renal = system: CAKI-1 renal
CCRF-CEM leukemia = system: CCRF-CEM leukemia
COLO 205 colon = system: COLO 205 colon
DLD-1 colon = system: DLD-1 colon
DMS 114 small cell lung = system: DMS 114 small cell lung
DMS 273 small cell lung = system: DMS 273 small cell lung
EKVX NSCLC = system: EKVX NSCLC
HCC-2998 colon = system: HCC-2998 colon
HCT-116 colon = system: HCT-116 colon
HCT-15 colon = system: HCT-15 colon
HL-60(TB) leukemia = system: HL-60(TB) leukemia
HOP-18 NSCLC = system: HOP-18 NSCLC
HOP-62 NSCLC = system: HOP-62 NSCLC
HOP-92 NSCLC = system: HOP-92 NSCLC
HT29 colon = system: HT29 colon
IGROV1 ovarian = system: IGROV1 ovarian
K-562 leukemia = system: K-562 leukemia
KM12 colon = system: KM12 colon
KM20L2 colon = system: KM20L2 colon
LOX IMVI melanoma = system: LOX IMVI melanoma
LXFL 529 NSCLC = system: LXFL 529 NSCLC
M14 melanoma = system: M14 melanoma
M19-MEL melanoma = system: M19-MEL melanoma
MALME-3M melanoma = system: MALME-3M melanoma
MOLT-4 leukemia = system: MOLT-4 leukemia
NCI-H226 lung = system: NCI-H226 lung
NCI-H23 lung = system: NCI-H23 lung
NCI-H460 lung = system: NCI-H460 lung
NCI-H522 lung = system: NCI-H522 lung
OVCAR-3 ovarian = system: OVCAR-3 ovarian
OVCAR-4 ovarian = system: OVCAR-4 ovarian
OVCAR-5 ovarian = system: OVCAR-5 ovarian
OVCAR-8 ovarian = system: OVCAR-8 ovarian
RPMI-8226 leukemia = system: RPMI-8226 leukemia
RXF 393 renal = system: RXF 393 renal
SF-268 CNS = system: SF-268 CNS
SF-295 CNS = system: SF-295 CNS
SF-539 CNS = system: SF-539 CNS
SK-MEL-2 melanoma = system: SK-MEL-2 melanoma
SK-MEL-28 melanoma = system: SK-MEL-28 melanoma
SK-MEL-5 melanoma = system: SK-MEL-5 melanoma
SK-OV-3 ovarian = system: SK-OV-3 ovarian
SN12C renal = system: SN12C renal
SNB-19 CNS = system: SNB-19 CNS
SNB-75 CNS = system: SNB-75 CNS
SNB-78 CNS = system: SNB-78 CNS
SR leukemia = system: SR leukemia
SW-620 colon = system: SW-620 colon
TK-10 renal = system: TK-10 renal
U251 CNS = system: U251 CNS
UACC-257 melanoma = system: UACC-257 melanoma
UACC-62 melanoma = system: UACC-62 melanoma
UO-31 renal = system: UO-31 renal
XF 498 CNS = system: XF 498 CNS

Measured: TGI

Cc1ccc(NC(=O)C(=O)C2NC(=S)NC2=O)c([N+](=O)[O-])c1 (stereo unspecified)
> 100 µM: all assays above

CCN(CC)CCC(=O)N1CCc2c([nH]c3ccccc23)C1c1cccnc1 (stereo unspecified)
not listed: COLO 205 colon | MALME-3M melanoma | NCI-H226 lung | RXF 393 renal | SK-MEL-2 melanoma
> 100 µM: all other assays above
